According to US8741934B2, “Inhibitors of ion channels” (Pfizer Limited, priority 2007, dated 2014):

molecular target: T1, hSCN3A sodium channels (Homo sapiens, UniProt Q9NY46); test: hSCN3A electrophysiology, whole-cell patch-clamp or PatchXpress 7000, estimated IC-50 (Table B); type: cell-based; conditions: estimated IC-50; hSCN3A cells, whole-cell patch-clamp or PatchXpress 7000; read-out: SCN3A EIC-50
T1 construct: expressed in transfected cells
Method in brief: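 Stably transfected HEK cells, whole-cell voltage clamp at 22-24° C, manual or PatchXpress 7000. Cells held at empirically determined inactivation V1/2; current evoked by 20 msec step to 0 mV after 8 sec prepulse to V1/2.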

T1 sequence (Q9NY46 whole entry): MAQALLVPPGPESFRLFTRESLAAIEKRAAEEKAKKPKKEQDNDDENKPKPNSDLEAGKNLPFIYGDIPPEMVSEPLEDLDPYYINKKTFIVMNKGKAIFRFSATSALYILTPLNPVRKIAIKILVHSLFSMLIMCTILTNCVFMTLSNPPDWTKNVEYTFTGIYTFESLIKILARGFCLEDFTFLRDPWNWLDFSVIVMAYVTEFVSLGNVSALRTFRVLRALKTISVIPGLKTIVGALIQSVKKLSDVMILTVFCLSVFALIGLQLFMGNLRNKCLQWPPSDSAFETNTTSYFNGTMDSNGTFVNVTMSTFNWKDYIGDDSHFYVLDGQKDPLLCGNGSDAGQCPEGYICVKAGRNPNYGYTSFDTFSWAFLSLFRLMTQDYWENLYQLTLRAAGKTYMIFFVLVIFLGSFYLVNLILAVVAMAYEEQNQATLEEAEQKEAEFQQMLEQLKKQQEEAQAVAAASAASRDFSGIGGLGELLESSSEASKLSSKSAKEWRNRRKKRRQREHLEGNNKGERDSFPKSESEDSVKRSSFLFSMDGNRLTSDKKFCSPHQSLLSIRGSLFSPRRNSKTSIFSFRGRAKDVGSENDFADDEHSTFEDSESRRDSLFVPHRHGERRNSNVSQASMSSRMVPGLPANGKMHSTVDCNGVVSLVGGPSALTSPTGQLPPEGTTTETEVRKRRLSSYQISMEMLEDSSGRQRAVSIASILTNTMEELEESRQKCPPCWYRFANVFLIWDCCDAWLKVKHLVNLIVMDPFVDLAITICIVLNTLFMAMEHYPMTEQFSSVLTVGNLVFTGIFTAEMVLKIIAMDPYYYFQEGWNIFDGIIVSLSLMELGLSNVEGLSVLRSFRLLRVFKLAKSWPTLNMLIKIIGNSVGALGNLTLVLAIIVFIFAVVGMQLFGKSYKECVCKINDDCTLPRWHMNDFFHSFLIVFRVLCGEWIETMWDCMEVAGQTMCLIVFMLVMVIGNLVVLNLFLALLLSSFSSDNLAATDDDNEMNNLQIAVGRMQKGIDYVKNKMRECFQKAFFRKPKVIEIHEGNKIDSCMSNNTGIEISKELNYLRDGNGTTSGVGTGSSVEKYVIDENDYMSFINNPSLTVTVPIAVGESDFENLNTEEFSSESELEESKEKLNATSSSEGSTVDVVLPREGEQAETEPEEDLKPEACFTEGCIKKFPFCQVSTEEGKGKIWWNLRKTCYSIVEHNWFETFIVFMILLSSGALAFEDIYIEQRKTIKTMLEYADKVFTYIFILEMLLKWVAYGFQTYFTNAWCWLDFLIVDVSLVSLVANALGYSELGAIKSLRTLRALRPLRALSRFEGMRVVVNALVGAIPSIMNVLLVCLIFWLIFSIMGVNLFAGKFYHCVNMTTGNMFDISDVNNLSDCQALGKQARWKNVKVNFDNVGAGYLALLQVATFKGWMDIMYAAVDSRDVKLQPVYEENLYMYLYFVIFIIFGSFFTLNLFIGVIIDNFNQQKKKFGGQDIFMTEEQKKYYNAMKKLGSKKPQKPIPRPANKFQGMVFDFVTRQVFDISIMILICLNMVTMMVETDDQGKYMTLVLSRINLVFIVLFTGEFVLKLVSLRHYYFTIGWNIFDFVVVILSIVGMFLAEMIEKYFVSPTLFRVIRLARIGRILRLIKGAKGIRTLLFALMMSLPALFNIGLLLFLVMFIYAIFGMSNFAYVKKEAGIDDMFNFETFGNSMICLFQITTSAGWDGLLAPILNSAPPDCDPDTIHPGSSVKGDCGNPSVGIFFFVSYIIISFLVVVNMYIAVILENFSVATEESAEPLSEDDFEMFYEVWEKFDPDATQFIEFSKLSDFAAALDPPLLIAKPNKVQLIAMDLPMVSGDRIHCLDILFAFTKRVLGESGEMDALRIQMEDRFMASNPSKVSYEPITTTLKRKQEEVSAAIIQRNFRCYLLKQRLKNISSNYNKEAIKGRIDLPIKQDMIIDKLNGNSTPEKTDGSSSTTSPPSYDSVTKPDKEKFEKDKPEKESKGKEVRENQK

| SMILES | IC50 |
| --- | --- |
| O=C(NCc1ccc(Cl)c(F)c1)c1ccc(S(=O)(=O)Nc2ncc(Cl)s2)c(Cl)c1 [Example 369, 3-Chloro-N-(4-chloro-3-fluorobenzyl)-4-{[(5-chloro-1,3-thiazol-2-yl)amino]sulfonyl} benzamide] | 6170 nM |
| O=C(NCc1ccc(F)c(OC(F)(F)F)c1)c1ccc(S(=O)(=O)Nc2ncc(Cl)s2)cc1F [Example 358, 4-{[(5-Chloro-1,3-thiazol-2-yl)amino]sulfonyl}-2-fluoro-N-[4-fluoro-3-(trifluoromethoxy)benzyl]benzamide] | 370 nM |
| O=C(NCCc1cccc(Cl)c1)c1ccc(S(=O)(=O)Nc2nccs2)cc1 [Example 70, N-[2-(3-chlorophenyl)ethyl]-4-[(1,3-thiazol-2-ylamino)sulfonyl]benzamide] | > 300 nM |
| O=C(NCc1ccc(C(F)(F)F)c(F)c1)c1ccc(S(=O)(=O)Nc2ncc(Cl)s2)cc1Cl [Example 339, 2-Chloro-4-{[(5-chloro-1,3-thiazol-2-yl)amino]sulfonyl}-N-[3-fluoro-4-(trifluoromethyl)benzyl]benzamide] | 590 nM |
| O=C(NCc1cccc(OC(F)(F)F)c1)c1ccc(S(=O)(=O)Nc2nccs2)cc1F [Example 335, 2-Fluoro-4-[(1,3-thiazol-2-ylamino)sulfonyl]-N-[3-(trifluoromethoxy)benzyl]benzamide] | 200 nM |
| O=C(NCc1ccc(C(F)(F)F)cc1F)c1ccc(S(=O)(=O)Nc2nccs2)cc1 [Example 397, N-[2-fluoro-4-(trifluoromethyl)benzyl]-4-[(1,3-thiazol-2-ylamino)sulfonyl] benzamide] | 220 nM |
| O=C(NCc1ccc(OC(F)(F)F)c(F)c1)c1ccc(S(=O)(=O)Nc2nccs2)cc1 [Example 394, N-[3-fluoro-4-(trifluoromethoxy)benzyl]-4-[(1,3-thiazol-2-ylamino)sulfonyl]benzamide] | 90 nM |
| O=C(NCc1ccccc1OC(F)(F)F)c1ccc(S(=O)(=O)Nc2nccs2)cc1 [Example 78, 4-[(1,3-Thiazol-2-ylamino)sulfonyl]-N-[2-(trifluoromethoxy)benzyl]benzamide] | 1630 nM |
| O=C(NCc1ccc(Cl)cc1C(F)(F)F)c1ccc(S(=O)(=O)Nc2nccs2)cc1 [Example 406, N-[4-chloro-2-(trifluoromethyl)benzyl]-4-[(1,3-thiazol-2-ylamino)sulfonyl] benzamide] | 260 nM |
| O=C(NC1CCc2ccccc21)c1ccc(S(=O)(=O)Nc2nccs2)cc1 (stereo not shown) [Example 158, N-(2,3-dihydro-1H-inden-1-yl)-4-[(1,3-thiazol-2-ylamino)sulfonyl]benzamide] | 2390 nM |
| O=C(c1ccc(S(=O)(=O)Nc2nccs2)cc1)N1CCC(c2ccccc2)C1 (stereo not shown) [Example 191, 4-[(3-Phenylpyrrolidin-1-yl)carbonyl]-N-1,3-thiazol-2-yl-benzenesulfonamide] | 2250 nM |
| O=C(NCc1ccc(C(F)(F)F)cc1F)c1ccc(S(=O)(=O)Nc2ncc(Cl)s2)cc1 [Example 39, 4-{[(5-Chloro-1,3-thiazol-2-yl)amino]sulfonyl}-N-[2-fluoro-4-(trifluoromethyl)benzyl]benzamide] | 120 nM |
| O=C(NCc1cccc(C(F)(F)F)c1)c1ccc(S(=O)(=O)Nc2ncc(Cl)s2)cc1F [Example 354, 4-{[(5-Chloro-1,3-thiazol-2-yl)amino]sulfonyl}-2-fluoro-N-[3-(trifluoromethyl)benzyl]benzamide] | 210 nM |
| O=C(NCc1ccc(F)c(C(F)(F)F)c1)c1ccc(S(=O)(=O)Nc2ncc(Cl)s2)cc1 [Example 34, 4-{[(5-Chloro-1,3-thiazol-2-yl)amino]sulfonyl}-N-[4-fluoro-3-(trifluoromethyl)benzyl]benzamide] | 90 nM |
| O=C(NCc1cccc(OC(F)(F)F)c1)c1ccc(S(=O)(=O)Nc2ncc(Cl)s2)c(Cl)c1 [Example 364, 3-Chloro-4-{[(5-chloro-1,3-thiazol-2-yl)amino]sulfonyl}-N-[3-(trifluoromethoxy)benzyl]benzamide] | 2180 nM |
| Cn1ccc(NS(=O)(=O)c2ccc(C(=O)NCc3ccc(C(F)(F)F)cc3)cc2)n1 [Example 2, 4-{[(1-Methyl-1H-pyrazol-3-yl)amino]sulfonyl}-N-[4-(trifluoromethyl)benzyl]benzamide] | > 1000 nM |
| O=C(NCc1ccc(OC(F)(F)F)c(F)c1)c1ccc(S(=O)(=O)Nc2nccs2)cc1F [Example 328, 2-Fluoro-N-[3-fluoro-4-(trifluoromethoxy)benzyl]-4-[(1,3-thiazol-2-ylamino)sulfonyl] benzamide] | 120 nM |
| CC(C)(NC(=O)c1ccc(S(=O)(=O)Nc2nccs2)cc1)c1cccc(C(F)(F)F)c1 [Example 125, N-{1-methyl-1-[3-(trifluoromethyl)phenyl]ethyl}-4-[(1,3-thiazol-2-ylamino)sulfonyl]benzamide] | 6450 nM |

| SMILES | IC50 |
| --- | --- |
| O=C(NCc1cccc(Cl)c1Cl)c1ccc(S(=O)(=O)Nc2nccs2)cc1 [Example 97, N-(2,3-dichlorobenzyl)-4-[(1,3-thiazol-2-ylamino)sulfonyl]benzamide] | 640 nM |
| O=C(NCc1ccc(F)cc1C(F)(F)F)c1ccc(S(=O)(=O)Nc2nccs2)cc1 [Example 80, N-[4-fluoro-2-(trifluoromethyl)benzyl]-4-[(1,3-thiazol-2-ylamino)sulfonyl]benzamide] | > 100 nM |
| O=C(NCc1ccc(OC(F)(F)F)c(Cl)c1)c1ccc(S(=O)(=O)Nc2ncns2)cc1Cl [Example 378, 2-Chloro-N-[3-chloro-4-(trifluoromethoxy)benzyl]-4-[(1,2,4-thiadiazol-5-ylamino)sulfonyl] benzamide] | 180 nM |
| O=C(NCc1ccc(C(F)(F)F)cc1)c1ccc(S(=O)(=O)Nc2nccs2)c(Cl)c1 [Example 287, 3-Chloro-4-[(1,3-thiazol-2-ylamino)sulfonyl]-N-[4-(trifluoromethyl)benzyl]benzamide] | 220 nM |
| Cc1nsc(NS(=O)(=O)c2ccc(C(=O)NCc3ccc(C(F)(F)F)cc3)cc2)n1 [Example 6, 4-{[(3-Methyl-1,2,4-thiadiazol-5-yl)amino]sulfonyl}-N-[4-(trifluoromethyl)benzyl]benzamide] | 1110 nM |
| O=C(NCc1ccc(C(F)(F)F)c(Cl)c1)c1ccc(S(=O)(=O)Nc2ncns2)c(F)c1 [Example 317, N-[3-chloro-4-(trifluoromethyl)benzyl]-3-fluoro-4-[(1,2,4-thiadiazol-5-ylamino)sulfonyl]benzamide] | 40 nM |
| O=C(c1ccc(S(=O)(=O)Nc2nccs2)cc1)N1CCOC[C@H]1c1ccccc1 [Example 48, 4-{[(3R)-3-phenylmorpholin-4-yl]carbonyl}-N-1,3-thiazol-2-ylbenzenesulfonamide] | > 1000 nM |
| O=C(NC(c1cccc(C(F)(F)F)c1F)C1CC1)c1ccc(S(=O)(=O)Nc2nccs2)cc1 (stereo not shown) [Example 119, N-{cyclopropyl[2-fluoro-3-(trifluoromethyl)phenyl]methyl}-4-[(1,3-thiazol-2-ylamino)sulfonyl]benzamide] | 1290 nM |
| O=C(NCc1ccc(F)c(C(F)(F)F)c1)c1ccc(S(=O)(=O)Nc2ncc(Cl)s2)c(F)c1 [Example 316, 4-{[(5-Chloro-1,3-thiazol-2-yl)amino]sulfonyl}-3-fluoro-N-[4-fluoro-3-(trifluoromethyl)benzyl] benzamide] | 140 nM |
| O=C(NCc1ccc(-c2ccccc2)cc1)c1ccc(S(=O)(=O)Nc2nccs2)cc1 [Example 399, N-(biphenyl-4-ylmethyl)-4-[(1,3-thiazol-2-ylamino)sulfonyl] benzamide] | 30 nM |
| N#Cc1cc(S(=O)(=O)Nc2ncc(Cl)s2)ccc1C(=O)NCc1ccc(C(F)(F)F)cc1 [Example 347, 4-{[(5-Chloro-1,3-thiazol-2-yl)amino]sulfonyl}-2-cyano-N-[4-(trifluoromethyl)benzyl]benzamide] | 1620 nM |
| O=C(NCc1ccc(OC(F)(F)F)c(F)c1)c1ccc(S(=O)(=O)Nc2ncc(Cl)s2)cc1F [Example 359, 4-{[(5-Chloro-1,3-thiazol-2-yl)amino]sulfonyl}-2-fluoro-N-[3-fluoro-4-(trifluoromethoxy)benzyl]benzamide] | 170 nM |
| O=C(NCc1ccc(OC(F)(F)F)c(F)c1)c1ccc(S(=O)(=O)Nc2ncns2)c(F)c1 [Example 318, 3-Fluoro-N-[3-fluoro-4-(trifluoromethoxy)benzyl]-4-[(1,2,4-thiadiazol-5-ylamino)sulfonyl]benzamide] | 140 nM |
| Cc1cc(NC(=O)c2ccc(S(=O)(=O)Nc3nccs3)cc2)n(-c2ccccc2)n1 [Example 307, N-(3-methyl-1-phenyl-1H-pyrazol-5-yl)-4-[(1,3-thiazol-2-ylamino)sulfonyl]benzamide] | 23700 nM |
| O=C(NCc1ccc(F)c(OC(F)(F)F)c1)c1ccc(S(=O)(=O)Nc2nccs2)c(F)c1 [Example 300, 3-Fluoro-N-[4-fluoro-3-(trifluoromethoxy)benzyl]-4-[(1,3-thiazol-2-ylamino)sulfonyl]benzamide] | 130 nM |
| O=C(NCc1cc(C(F)(F)F)ccc1Cl)c1ccc(S(=O)(=O)Nc2nccs2)cc1 [Example 120, N-[2-chloro-5-(trifluoromethyl)benzyl]-4-[(1,3-thiazol-2-ylamino)sulfonyl]benzamide] | 500 nM |
| O=C(NCc1ccc(F)c(C2CC2)c1)c1ccc(S(=O)(=O)Nc2nccs2)cc1 [Example 54, N-(3-cyclopropyl-4-fluorobenzyl)-4-[(1,3-thiazol-2-ylamino)sulfonyl]benzamide] | 120 nM |
| COc1cc(OC(F)(F)F)ccc1CNC(=O)c1ccc(S(=O)(=O)Nc2nccs2)cc1 [Example 404, N-[2-methoxy-4-(trifluoromethoxy)benzyl]-4-[(1,3-thiazol-2-ylamino)sulfonyl] benzamide] | 140 nM |

same assay, conditions: read-out: SCN3A EIC-50

| SMILES | IC50 |
| --- | --- |
| O=C(NCc1ccc(C(F)(F)F)c(Cl)c1)c1ccc(S(=O)(=O)Nc2ncc(Cl)s2)cn1 [Example 346, 5-{[(5-Chloro-1,3-thiazol-2-yl)amino]sulfonyl}-N-[3-chloro-4-(trifluoromethyl)benzyl] pyridine-2-carboxamide] | 70 nM |
